Laboratory results from publication PMC7948982, “Dissecting the low catalytic capability of flavin-dependent halogenases” (The Journal of Biological Chemistry, 2020).
Each block holds one compound with its values, some of them ahead of it.

Experiments:
[1] = target: T1, Thal (tryptophan 6-halogenase) (Streptomyces albogriseolus, UniProt A1E280); test: X-ray crystal structure, […] Å; format: binding; details: apo crystals soaked with FAD and Trp for 7 days, 25 °C
T1 construct: recombinant, E. coli BL21(DE3), pET28b; tag residues seen in 7CU1; two protomers per asymmetric unit; GFP11 C-terminal tag only in the mutant library screen
T1 sequence (A1E280 whole entry): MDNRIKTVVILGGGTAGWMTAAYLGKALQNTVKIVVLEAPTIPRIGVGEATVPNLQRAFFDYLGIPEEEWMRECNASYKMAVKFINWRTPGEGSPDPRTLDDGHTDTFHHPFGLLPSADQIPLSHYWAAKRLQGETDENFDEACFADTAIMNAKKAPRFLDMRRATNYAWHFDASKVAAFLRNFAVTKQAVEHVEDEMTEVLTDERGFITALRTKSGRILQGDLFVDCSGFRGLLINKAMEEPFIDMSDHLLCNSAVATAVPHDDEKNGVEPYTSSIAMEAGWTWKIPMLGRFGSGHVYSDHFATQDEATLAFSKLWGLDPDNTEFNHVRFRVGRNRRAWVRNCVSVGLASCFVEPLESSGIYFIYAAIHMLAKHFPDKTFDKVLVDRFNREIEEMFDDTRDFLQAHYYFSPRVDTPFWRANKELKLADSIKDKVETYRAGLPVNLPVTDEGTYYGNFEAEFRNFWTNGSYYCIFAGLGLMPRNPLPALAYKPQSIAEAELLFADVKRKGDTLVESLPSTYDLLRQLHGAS

[2] = target: T1, Thal (tryptophan 6-halogenase); test: X-ray crystal structure, […] Å; format: binding; details: crystal soak with FAD, tryptophan and dithionite; flavin site
[3] = target: T2, Thal (tryptophan 6-halogenase) (Streptomyces albogriseolus, UniProt A1E280, K79T); test: stopped-flow absorbance at […] and […] nm, C4a-hydroperoxyflavin formation; format: biochemical; details: 30 μM enzyme, 15 μM FADH-, air-saturated buffer; 20 mM potassium phosphate pH 7.2, 25 °C
T2 construct: recombinant, E. coli BL21(DE3), pET28b; tag residues seen in 7CU1; two protomers per asymmetric unit; GFP11 C-terminal tag only in the mutant library screen
T2 sequence (A1E280 whole entry K79T): as the sequence (A1E280 whole entry) above, with K79T counted along it

[4] = target: T3, PyrH (tryptophan 5-halogenase) (Streptomyces rugosporus, UniProt A4D0H5); test: stopped-flow fluorescence, C4a-hydroxyflavin formation; format: biochemical; details: with C4a-hydroperoxyflavin enzyme; pH 7.2, 25 °C
T3 construct: construct and source details not given
T3 sequence (A4D0H5 whole entry): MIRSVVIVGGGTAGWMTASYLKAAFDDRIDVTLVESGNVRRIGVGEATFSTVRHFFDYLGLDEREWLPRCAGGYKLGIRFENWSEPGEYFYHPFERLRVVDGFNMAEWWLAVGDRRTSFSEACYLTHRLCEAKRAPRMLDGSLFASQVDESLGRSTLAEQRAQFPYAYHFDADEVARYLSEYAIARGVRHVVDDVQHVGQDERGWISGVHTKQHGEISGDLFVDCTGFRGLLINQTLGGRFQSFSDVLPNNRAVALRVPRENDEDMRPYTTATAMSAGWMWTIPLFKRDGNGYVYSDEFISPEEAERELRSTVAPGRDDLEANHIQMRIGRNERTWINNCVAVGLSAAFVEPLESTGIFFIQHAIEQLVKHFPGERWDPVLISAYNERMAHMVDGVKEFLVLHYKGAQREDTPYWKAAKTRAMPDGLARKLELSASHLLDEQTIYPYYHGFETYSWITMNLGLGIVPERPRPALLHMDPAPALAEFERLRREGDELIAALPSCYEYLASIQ

[5] = target: T4, PrnA (tryptophan 7-halogenase) (Pseudomonas fluorescens, UniProt P95480); test: as above; format: biochemical; details: with C4a-hydroperoxyflavin enzyme; pH 7.2, 25 °C
T4 construct: construct and source details not given
T4 sequence (P95480 whole entry): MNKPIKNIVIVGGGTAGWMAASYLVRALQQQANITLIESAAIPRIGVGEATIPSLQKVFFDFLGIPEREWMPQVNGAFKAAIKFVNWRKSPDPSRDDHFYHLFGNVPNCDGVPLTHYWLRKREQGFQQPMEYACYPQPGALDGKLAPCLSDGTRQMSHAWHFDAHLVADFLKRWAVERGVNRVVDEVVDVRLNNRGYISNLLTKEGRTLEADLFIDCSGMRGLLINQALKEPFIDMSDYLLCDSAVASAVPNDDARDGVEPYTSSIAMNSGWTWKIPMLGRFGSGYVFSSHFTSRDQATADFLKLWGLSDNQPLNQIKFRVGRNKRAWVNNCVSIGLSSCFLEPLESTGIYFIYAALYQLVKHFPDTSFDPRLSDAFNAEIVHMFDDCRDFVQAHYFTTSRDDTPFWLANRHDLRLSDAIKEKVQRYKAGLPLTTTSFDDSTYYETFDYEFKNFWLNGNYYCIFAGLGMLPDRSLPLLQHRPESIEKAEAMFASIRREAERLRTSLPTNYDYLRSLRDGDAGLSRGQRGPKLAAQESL

[6] = target: T1, Thal (tryptophan 6-halogenase); test: stopped-flow fluorescence, kobs of C4a-hydroxyflavin formation versus halide; format: biochemical; details: binding to the C4a-hydroperoxyflavin form of the enzyme; two-step model; 20 mM potassium phosphate pH 7.2, 25 °C
Text: stopped-flow fluorescence, kobs of C4a-hydroxyflavin formation versus halide on Thal (tryptophan 6-halogenase)

[7] = target: T5, (Pseudomonas fluorescens, UniProt P95480); test: multiple turnover halogenation; format: biochemical
T5 construct: gene prnA; construct and source details not given
T5 sequence (P95480 whole entry): as above

[8] = target: T1, Thal (tryptophan 6-halogenase); test: X-ray crystal structure, […] Å; format: binding; details: apo crystals soaked, 2 days, 25 °C; tryptophan site

SMILES: Nc1ncnc2c1ncn2[C@@H]1O[C@H](COP(=O)(O)O)[C@@H](O)[C@H]1O [AMP]
X-ray crystal structure, 1.91 Å ([1]; flavin site crystal, AMP not added to the soak): Thal:FAD:AMP (PDB code 7CU1) were solved with two protomers per asymmetric unit (asu).

SMILES: Cc1cc2c(cc1C)N(C[C@H](O)[C@H](O)[C@H](O)COP(=O)(O)OP(=O)(O)OC[C@H]1O[C@@H](n3cnc4c(N)ncnc43)[C@H](O)[C@@H]1O)c1[nH]c(=O)[nH]c(=O)c1N2 [FADH^−]
X-ray crystal structure, 2.40 Å [2]: Clear electron density for FADH^− was observed in both protomers.
stopped-flow absorbance at 380 and 450 nm, C4a-hydroperoxyflavin formation [3]: These data indicate that Lys79Thr could still form C4aOOH-FAD

SMILES: Cc1cc2nc3c(=O)[nH]c(=O)nc-3n(C[C@H](O)[C@H](O)[C@H](O)COP(=O)(O)OP(=O)(O)OC[C@H]3O[C@@H](n4cnc5c(N)ncnc54)[C@H](O)[C@@H]3O)c2cc1C [FAD]
X-ray crystal structure, 1.91 Å ([1]; flavin site): Thal:FAD:AMP (PDB code 7CU1) were solved with two protomers per asymmetric unit (asu).

Kd [6]: 64 ± 21 µM
SMILES: I [I^−]
stopped-flow fluorescence, C4a-hydroxyflavin formation [4]: PrnA and PyrH could also react with I^− to form HOI and C4aOH-FAD
stopped-flow fluorescence, C4a-hydroxyflavin formation [5]: PrnA and PyrH could also react with I^− to form HOI and C4aOH-FAD

SMILES: N[C@@H](Cc1c[nH]c2ccccc12)C(=O)O [tryptophan]
multiple turnover halogenation [7]: multiple turnover reactions of Thal were carried out and compared with the reactions of PrnA
X-ray crystal structure, 1.95 Å [8]: we solved the structure of the Thal:TRP complex (PBD code 7CU0
